Test results from the NIST ThermoML archive (doi:10.1016/j.tca.2013.03.025).

Test: refractive index (Na D-line) (dimensionless); xn = mol fraction of the nth substance listed
Conditions: 101 kPa, Liquid, Standard Abbe refractometry

CCCCOC(=O)C(C)O (stereo not given) [butyl 2-hydroxypropanoate] + CCCO
refractive index
Conditions	x1 = 0.1	x1 = 0.2	x1 = 0.3001	x1 = 0.3998	x1 = 0.5	x1 = 0.5999	x1 = 0.7001	x1 = 0.7996	x1 = 0.8998	x1 = 1
288.15 K	1.39449	1.4003	1.4052	1.40922	1.41285	1.41543	1.41816	1.42021	1.42209	1.42379
293.15 K	1.39238	1.39818	1.40305	1.40704	1.41067	1.41321	1.41593	1.41798	1.41984	1.42152
298.15 K	1.39028	1.39605	1.40088	1.40485	1.40846	1.41101	1.41369	1.41572	1.41758	1.41925
303.15 K	1.38813	1.39389	1.3987	1.40265	1.40623	1.40877	1.41144	1.41346	1.4153	1.41697
308.15 K	1.38599	1.3917	1.39651	1.40042	1.40398	1.40652	1.40919	1.4112	1.41304	1.41469
313.15 K	1.38382	1.38951	1.39427	1.3982	1.4017	1.40425	1.40691	1.40893	1.41077	1.4124
318.15 K	1.3816	1.38726	1.39198	1.39591	1.39938	1.40195	1.40455	1.40658	1.40842	1.41005
323.15 K	1.37938	1.38505	1.38973	1.39364	1.3971	1.39967	1.40228	1.40433	1.40617	1.40778
